From ChEMBL document CHEMBL1201862, “PubChem BioAssay data set” (2004) come the findings set out here.

The source made the active and inactive calls.

Series [1] deals with Cytochrome P450 2C9 (Homo sapiens, UniProt P11712).
Series [2] deals with Vero. In words: cells. Type of series: functional. Particulars: Chlorocebus sabaeus.
Series [3] concerns the target T1, Short transient receptor potential channel 4 (Mus musculus, UniProt Q9QUQ5).
T1 sequence (Q9QUQ5 whole entry): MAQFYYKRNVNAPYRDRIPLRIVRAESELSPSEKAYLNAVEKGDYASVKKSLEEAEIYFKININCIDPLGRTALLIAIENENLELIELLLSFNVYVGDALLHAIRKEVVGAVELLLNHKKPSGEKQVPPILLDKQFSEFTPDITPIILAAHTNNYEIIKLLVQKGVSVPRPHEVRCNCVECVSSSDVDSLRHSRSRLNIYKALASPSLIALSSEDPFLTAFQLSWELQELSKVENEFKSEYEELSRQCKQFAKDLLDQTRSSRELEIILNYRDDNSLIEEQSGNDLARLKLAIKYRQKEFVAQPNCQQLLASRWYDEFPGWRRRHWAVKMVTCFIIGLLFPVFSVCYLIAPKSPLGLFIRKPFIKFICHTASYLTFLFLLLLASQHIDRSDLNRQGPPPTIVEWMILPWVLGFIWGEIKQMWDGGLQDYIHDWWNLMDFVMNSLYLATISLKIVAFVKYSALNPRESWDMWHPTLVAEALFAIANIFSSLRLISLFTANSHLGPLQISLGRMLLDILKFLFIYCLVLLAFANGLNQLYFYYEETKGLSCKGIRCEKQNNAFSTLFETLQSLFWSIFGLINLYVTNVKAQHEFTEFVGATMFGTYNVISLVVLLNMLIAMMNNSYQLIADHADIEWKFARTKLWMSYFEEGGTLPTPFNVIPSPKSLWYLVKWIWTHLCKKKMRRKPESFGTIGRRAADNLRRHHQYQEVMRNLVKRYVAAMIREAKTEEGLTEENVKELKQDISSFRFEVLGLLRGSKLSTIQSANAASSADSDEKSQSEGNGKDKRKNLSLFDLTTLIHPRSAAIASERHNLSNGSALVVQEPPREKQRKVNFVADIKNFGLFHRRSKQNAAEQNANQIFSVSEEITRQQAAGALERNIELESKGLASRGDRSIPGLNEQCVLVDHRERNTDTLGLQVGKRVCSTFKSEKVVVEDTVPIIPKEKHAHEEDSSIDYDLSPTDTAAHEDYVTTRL
In words: calcium entry via TRPC4 opening agents – cell-based, HEK293 TRPC4/mu-opioid, Fluo-4 calcium, dose response (AID 434937). The class given is functional.

For series [4], the target named is Cytochrome P450 2C19 (Homo sapiens, UniProt P33261). In words: Cytochrome panel assay with activity outcomes. Panel member name: p450-cyp2c19 Compounds with AC50 equal or less than 10 uM are considered active. Type of series: functional.
Chain of Cytochrome P450 2C19 (P33261 whole entry): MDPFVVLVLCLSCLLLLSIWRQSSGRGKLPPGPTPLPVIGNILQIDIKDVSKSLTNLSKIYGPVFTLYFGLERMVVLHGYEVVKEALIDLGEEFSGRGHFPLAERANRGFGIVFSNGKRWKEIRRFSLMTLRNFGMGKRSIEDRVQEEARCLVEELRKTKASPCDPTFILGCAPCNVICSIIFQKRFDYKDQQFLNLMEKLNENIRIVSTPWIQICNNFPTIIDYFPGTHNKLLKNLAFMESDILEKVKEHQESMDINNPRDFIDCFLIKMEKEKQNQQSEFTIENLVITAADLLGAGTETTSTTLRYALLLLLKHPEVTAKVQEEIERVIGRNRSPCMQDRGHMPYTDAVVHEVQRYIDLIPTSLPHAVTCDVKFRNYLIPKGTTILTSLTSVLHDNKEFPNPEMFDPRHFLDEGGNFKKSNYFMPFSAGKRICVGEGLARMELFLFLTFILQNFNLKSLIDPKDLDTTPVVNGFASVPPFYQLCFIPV
Series [5] is described as follows: fluconazole-exposed Candida albicans growth modulators – fluorescence, retest, confirmation (AID 2467). Type of series: functional, cell-based.
Series [6] can be described thus: NIH-3T3 fibroblast cytotoxicity, dose response, cytotoxicity control, cell-based, fluorescence, Alamar Blue, secondary assay (AID 2327).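 Also: NIH-3T3 mouse fibroblasts cultured with fluconazole at 8 µg/mL.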 Type of series: functional. In general terms: The colour change of resazurin is a common sign of viable cells or microbes.
Series [7] addresses T2, CAAX prenyl protease 2 (Saccharomyces cerevisiae S288c, UniProt Q03530).
T2 sequence (Q03530 whole entry): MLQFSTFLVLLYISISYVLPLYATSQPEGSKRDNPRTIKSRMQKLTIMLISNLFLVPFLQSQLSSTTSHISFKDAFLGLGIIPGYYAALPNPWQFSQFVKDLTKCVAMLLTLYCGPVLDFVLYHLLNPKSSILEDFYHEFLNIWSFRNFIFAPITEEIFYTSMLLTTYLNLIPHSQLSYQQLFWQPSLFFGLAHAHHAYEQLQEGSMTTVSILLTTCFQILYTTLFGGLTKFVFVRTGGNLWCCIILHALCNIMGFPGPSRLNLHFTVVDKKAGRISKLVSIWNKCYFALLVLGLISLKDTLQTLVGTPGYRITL
Type of series: biochemical.

Series [8] addresses Heat shock protein HSP 90-alpha (Homo sapiens, UniProt P07900). The class given is functional, organism-based.
Series [9] has as its target Cytochrome P450 2D6 (Homo sapiens, UniProt P10635).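 Also: CYP2D6 member of a cytochrome P450 panel assay.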
The target of series [10] is Cytochrome P450 3A4 (Homo sapiens, UniProt P08684).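 Also: CYP3A4 tested as one member of a cytochrome P450 panel screen.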
Chain of Cytochrome P450 3A4 (P08684 whole entry): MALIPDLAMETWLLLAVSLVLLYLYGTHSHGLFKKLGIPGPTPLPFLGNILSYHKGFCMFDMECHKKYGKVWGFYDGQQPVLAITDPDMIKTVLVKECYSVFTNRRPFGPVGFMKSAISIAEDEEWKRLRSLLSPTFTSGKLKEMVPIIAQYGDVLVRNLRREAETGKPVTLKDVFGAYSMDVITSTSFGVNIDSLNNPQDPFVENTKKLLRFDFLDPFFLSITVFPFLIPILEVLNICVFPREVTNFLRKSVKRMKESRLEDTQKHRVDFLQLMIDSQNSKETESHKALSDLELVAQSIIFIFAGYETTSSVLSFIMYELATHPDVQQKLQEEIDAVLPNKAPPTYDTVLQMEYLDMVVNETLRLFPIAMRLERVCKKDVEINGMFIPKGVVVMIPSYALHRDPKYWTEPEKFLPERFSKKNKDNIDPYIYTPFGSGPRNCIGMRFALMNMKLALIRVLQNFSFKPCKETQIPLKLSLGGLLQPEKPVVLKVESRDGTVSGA
A short description of series [11]: NIH3T3 cell viability loss – ATP luminescence, mouse fibroblasts, counter-screen, dose response (AID 2010).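 Also: cells exposed to compound for about 90 hours before reading.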 The class given is functional, cell-based. (A counterscreen serves to expose hits that act by an unwanted route or on another target.)
The nature of series [12]: Trypanosoma cruzi growth suppression in host cells – NIH3T3 host cells, beta-gal luminescence, confirmation (AID 2044).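 Also: intracellular parasites grown in NIH/3T3 mouse fibroblasts as host cells; luminescent beta-galactosidase reporter signal from transgenic T. cruzi replicating inside host cells; inhibitors lower the luminescence signal.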 The class given is functional, cell-based.
The test system of series [13] is BJ. In words: BJ-TERT fibroblast viability loss – cell-based, RAS-independent, luminescence, dose response (AID 1933). Type of series: functional. Particulars: Homo sapiens.
The test system of series [14] is BJ. In words: cells. Type of series: functional, cell-based. Particulars: Homo sapiens.
Series [15] concerns BJ. In words: BJ-TERT-LT-ST fibroblast viability loss – cell-based, RAS-independent, luminescence, dose response (AID 1935).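 Also: BJ fibroblasts immortalized with TERT plus LT and ST oncogenes.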 Type of series: functional. Particulars: Homo sapiens.
A short description of series [16]: DRD fibroblast viability loss – cell-based, non-viral oncogenic, luminescence, dose response (AID 1934). Particulars: Homo sapiens. Type of series: functional.

Chain of Cytochrome P450 2C9 (P11712 whole entry): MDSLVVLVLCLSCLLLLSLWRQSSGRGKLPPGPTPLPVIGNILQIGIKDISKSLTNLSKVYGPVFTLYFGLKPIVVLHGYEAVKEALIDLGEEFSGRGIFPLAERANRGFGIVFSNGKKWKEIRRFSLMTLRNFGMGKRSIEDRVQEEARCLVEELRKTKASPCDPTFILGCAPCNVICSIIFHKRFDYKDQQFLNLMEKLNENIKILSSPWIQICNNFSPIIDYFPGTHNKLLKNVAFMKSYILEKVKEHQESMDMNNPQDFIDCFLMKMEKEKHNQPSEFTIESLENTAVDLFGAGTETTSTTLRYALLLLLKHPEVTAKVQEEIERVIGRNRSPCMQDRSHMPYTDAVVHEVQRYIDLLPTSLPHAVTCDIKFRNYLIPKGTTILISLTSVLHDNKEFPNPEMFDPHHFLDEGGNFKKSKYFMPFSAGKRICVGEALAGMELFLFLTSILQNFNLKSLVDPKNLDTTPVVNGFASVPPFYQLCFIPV
Chain of Cytochrome P450 2D6 (P10635 whole entry): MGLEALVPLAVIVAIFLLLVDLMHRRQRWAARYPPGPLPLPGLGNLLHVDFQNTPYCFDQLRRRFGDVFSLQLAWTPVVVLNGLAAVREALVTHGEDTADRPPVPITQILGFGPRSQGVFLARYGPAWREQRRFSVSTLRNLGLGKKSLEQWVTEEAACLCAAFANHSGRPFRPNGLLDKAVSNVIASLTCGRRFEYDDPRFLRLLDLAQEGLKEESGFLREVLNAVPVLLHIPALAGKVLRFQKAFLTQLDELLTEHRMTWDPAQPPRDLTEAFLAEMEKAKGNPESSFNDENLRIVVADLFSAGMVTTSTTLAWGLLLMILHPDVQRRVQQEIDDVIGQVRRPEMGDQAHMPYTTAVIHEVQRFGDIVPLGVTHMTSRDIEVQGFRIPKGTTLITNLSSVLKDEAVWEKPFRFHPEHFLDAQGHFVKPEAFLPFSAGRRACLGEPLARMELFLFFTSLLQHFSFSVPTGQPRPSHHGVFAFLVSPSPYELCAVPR

With `CS(=O)(=O)c1ccc(Cn2c3c(c4cc(F)cc(F)c42)CCC[C@H]3CC(=O)O)cc1`, the AC50 (commonly the midpoint of the concentration-response curve, whichever way the signal moves) in series [1] is “inconclusive”.

`CCOC(=O)C1=C(N)N=C(N)C1=Nc1ccc(OC)cc1`: in series [2], the CC50 (as a rule, the concentration giving 50% cytotoxicity) is 11.1 µM (active).

As to `CCCN(CCC)CCCNc1ccc2nnc(-c3ccc(F)cc3)n2n1`, the half-maximal effective concentration (EC50) (commonly the concentration at which the effect is half-maximal) in series [3] was 0.596 µM (active).

On to `c1ccc(-c2ccc3c(c2)c2c4n3CCN=C4CCC2)cc1`, for which, in [4] (read-out: AC50), the concentration at half-maximal activity (AC50) was 31.6 µM (inconclusive). Besides, the values for the EC50 in series [5] and in series [6] were > 38 µM (not active) and 50.1 µM (active), respectively. In addition, in series [2], the CC50 was 23.6 µM (active).

On to `Nc1nc(N)c2nc(CNc3ccc(C(=O)N[C@H](CCC(=O)O)C(=O)O)cc3)cnc2n1`, for which the AC50 result in series [1] is listed as “inconclusive”.

For the compound `CCOC(=O)C1(CCc2ccccc2)CCN(Cc2csc(C(C)=O)c2)CC1`, the 50% effective concentration (EC50) in [3] was 0.841 µM (active).

Turning to `O=C(c1cnc2n(c1=O)CCS2)N1CCN(C(c2ccccc2)c2ccc(Cl)cc2)CC1` (centres undefined), in series [7], the AC50 was 8.81 µM (active).

With `CCCC1COC(Cn2cncn2)(c2ccc(C)cc2)O1` (centres undefined), the AC50 in series [8] is 0.73 µM (active).

As for `C[C@@H]1CCC[C@H](C)N1`, the half-maximal activity concentration (AC50) result in series [4] and in [1] was “inconclusive” each time.

Consider `Cn1c(N2CCN(C(=O)Nc3ccc(F)cc3)CC2)nc2ccccc21`, for which the EC50 in series [3] was 6.68 µM (active).

As to `O=C(c1cnn(-c2ccccc2)c1)c1ccc2ccccc2c1O`, the AC50 in series [9] is 7.08 µM (inconclusive); in series [10], 17.8 µM (inconclusive); in series [1], “inconclusive”.

As for `CN(C)CCN(C(=O)c1ccc2ccccc2c1)c1nc2ccc(Br)cc2s1`, the AC50 in series [7] is 4.77 µM (active).

As for `Cc1ccc(C)c(OCCCCn2ccnc2)c1`, the EC50 was > 60 µM (not active) in series [11], 4.73 µM (active) in series [3] and 2.04 µM (active) in series [12].

With `CC(/C=N/NC(=O)c1[nH]nc2c1CCC2)=C\c1ccccc1`, the EC50 in [13] is 0.346 µM (inconclusive); in series [14], 25.5 µM (inconclusive); in [15], 1.03 µM (inconclusive); in series [16] it was 0.43 µM (active). For the same compound, the CC50 in series [2] is < 0.05 µM (active).

As for `O=C1CCCN1CCC1CCN(C2CC(=O)N(c3ccc(Cl)cc3)C2=O)CC1` (centres undefined), the AC50 in [8] was 7.56 µM (active).

Consider `COC(=O)CN1CN(c2ccccc2)C2(CCN(Cc3ccc4ccccc4c3)CC2)C1=O`, for which the AC50 is 20 µM (inconclusive) in series [9] and “inconclusive” in series [1].
